Measured values taken from article PMC6695355, “Alanine Scanning Studies of the Antimicrobial Peptide Aurein 1.2” (Probiotics and Antimicrobial Proteins, 2018).
Converted amounts (≈) assume the structure as drawn. Read-outs that look alike come from different tables or passages of the source. Where a SMILES comes first, the peptide text is derived from it.

Legend:
[1] = tested on: S. aureus ATCC 25923 biofilm formation; format: cell-based, Staphylococcus aureus; details: ATCC 25923, 24 h
Protocol: (§1) The minimum inhibitory concentrations (MICs) of test compounds were assessed by broth microdilution method on 96-well plates, according to the guidelines of Clinical and Laboratory Standards Institute (CLSI). For this purpose, reference strains of bacteria: S. aureus ATCC 25923, E. faecalis PCM 2673, E. coli ATCC 25922, and P. aeruginosa ATCC 9027; and fungus: C. albicans ATCC 10231 were used (The Polish Collection of Microorganism, Polish Academy of Sciences, Wrocław, Poland). Bacteria at initial inoculums of 0.5 × 10^5 CFU/mL in Mueller Hinton Broth (MHB), and fungi at initial inoculums of 2 × 10^3 CFU/mL in RPMI-1640, were exposed to the compounds over the concentration range of 1–512 μg/mL. The polystyrene plates were incubated at 37 °C for 18 h with bacteria and for 24 h with C. albicans. The MIC was taken as the lowest concentration at which a noticeable growth of microorganisms was inhibited. Minimum biofilm eradication concentrations (MBECs) were determined using a previously described protocol. For this purpose, 96-well polystyrene flat-bottom plates and a resazurin (7-hydroxy-3H-phenoxazin-3-one 10-oxide) were used. In this assay, a specific feature of resazurin is utilized, which upon the contact with living cells is metabolized and reduced from the basic blue form to pink resorufin. Briefly, 24-h cultures of microorganisms were diluted 1,000-fold and 100 μL of that suspension was added into the test plates. After 24 h of incubation at 37 °C, the wells of the plates were rinsed three times with phosphate buffer saline (PBS) to remove non-adherent cells. Subsequently, 100 μL of test compounds in concentration range (diluted in appropriate media) were added to each well. After 24 h of incubation at 37 °C, 20 μL of the resazurin (4 mg/mL) was added. The MBEC was read after 1 h. Additionally, anti-adhesive properties of the compounds were also analyzed. The assay was conducted on 96-well polystyrene flat-bottom plates. The preparation of inoculums was followed by a 500-fold dilution of 24-h cultures of microorganisms. Briefly, to evaluate the effect of the peptides in preventing biofilm formation, 50 μL of compounds in concentration range, diluted in appropriate medium, were prepared. Subsequently, the 50 μL of the bacterial/fungal inoculums were added to reach the same microbial density as that in MBEC assay. After 24 h of incubation at 37 °C, the wells were rinsed three times with PBS and the fresh media with resazurin (0.6 mg/mL) were added. Then, after 1 h of incubation, the minimum biofilm inhibitory concentrations (MBIC) were read. MBECs as well as MBICs were determined as the lowest concentration at which the reduction of resazurin was lower or equal (10% ± 0.5%) as compared to positive (100%) and negative (0%) controls. All experiments were performed in triplicate.

[2] = tested on: S. aureus ATCC 25923 biofilm; format: cell-based, Staphylococcus aureus; details: ATCC 25923, 24 h
Protocol: as §1

S. aureus ATCC 25923 = format: cell-based, Staphylococcus aureus; details: ATCC 25923, 18 h
Protocol: as §1

[3] = tested on: E. faecalis PCM 2673 biofilm formation; format: cell-based, Enterococcus faecalis; details: 24 h
Protocol: as §1

[4] = tested on: E. faecalis PCM 2673 biofilm; format: cell-based, Enterococcus faecalis; details: 24 h
Protocol: as §1

E. faecalis PCM 2673 = format: cell-based, Enterococcus faecalis; details: PCM 2673, 18 h
Protocol: as §1

[5] = tested on: E. coli ATCC 25922 biofilm formation; format: cell-based, Escherichia coli; details: ATCC 25922, 24 h
Protocol: as §1

[6] = tested on: E. coli ATCC 25922 biofilm; format: cell-based, Escherichia coli; details: ATCC 25922, 24 h
Protocol: as §1

E. coli ATCC 25922 = format: cell-based, Escherichia coli; details: ATCC 25922, 18 h
Protocol: as §1

[7] = tested on: P. aeruginosa ATCC 9027 biofilm formation; format: cell-based, Pseudomonas aeruginosa; details: ATCC 9027, 24 h
Protocol: as §1

[8] = tested on: P. aeruginosa ATCC 9027 biofilm; format: cell-based, Pseudomonas aeruginosa; details: ATCC 9027, 24 h
Protocol: as §1

P. aeruginosa ATCC 9027 = format: cell-based, Pseudomonas aeruginosa; details: ATCC 9027, 18 h
Protocol: as §1

[9] = tested on: C. albicans ATCC 10231 biofilm formation; format: cell-based, Candida albicans; details: ATCC 10231, 24 h
Protocol: as §1

[10] = tested on: C. albicans ATCC 10231 biofilm; format: cell-based, Candida albicans; details: ATCC 10231, 24 h
Protocol: as §1

C. albicans ATCC 10231 = format: cell-based, Candida albicans; details: ATCC 10231, 24 h
Protocol: as §1

[11] = tested on: human red blood cells (RBCs); assay: Hemolysis assay; format: cell-based
Protocol: The hemolytic activity of the peptides was determined using fresh human red blood cells (RBCs) collected from a healthy human donor according to the procedure described in the literature. Fresh RBCs with EDTA as anticoagulant were rinsed three times with a PBS by centrifugation at 800×g for 10 min and resuspension in PBS. Serial dilution of the peptides in PBS (1–256 μg/mL) on 96-well polystyrene plates was prepared and the stock solution of RBCs was added up to a final volume of 100 μL with a 4% concentration of erythrocytes (v/v). The control wells for 0 and 100% hemolysis contained of RBCs suspended in PBS and 1% of Triton-X 100, respectively. Subsequently, the plates were incubated for 1 h at 37 °C and then centrifuged at 800×g for 10 min at 4 °C (Sorvall ST 16R Centrifuge, Thermo Scientific). After centrifugation, the supernatant was carefully […] to new microtiter plates and the release of hemoglobin was measured at 540 nm (Multiskan™ GO Microplate Spectrophotometer, Thermo Scientific). All experiments were conducted in triplicate.

in vitro = in vitro ADME; details: bovine, serum
Protocol: To assess serum stability, the peptides (0.5 mg) were dissolved in 4 mL of 25% (v/v) fetal bovine serum (FBS) in PBS and incubated at 37 °C. The aliquots of 100 μL of the test samples were transferred to 96-well polystyrene plates in triplicate for each time point. Samples were quenched at zero time (t0) and after 6 h of incubation at 37 °C by addition of 100 μL of ice-cold acetonitrile and stored at 4 °C for 10 min. Afterwards, the samples were centrifuged at 13,000×g for 20 min at 4 °C and diluted 1:1 with HPLC-grade water. All samples were analyzed using the Waters Alliance e2695 system with Waters Acquity QDa Detector (software–Empower®3). Analyses were conducted on an Agilent Zorbax SB-C18 RP-18 column (4.6 × 50 mm, 1.8-μm particle size, 80-Å pore size) using a linear 30–60% acetonitrile (B) gradient in deionized water (A) over 6 min at 25.0 ± 0.1 °C, at a flow rate of 0.5 mL/min and MS working in selected ion recording (SIR) mode (A—0.1% aqueous formic acid (FA) and B—0.1% FA in acetonitrile). The percentage of peptide remaining intact was calculated from peak areas of samples at t0 and after 6 h of incubation in serum (the % of remaining peptide = peak area after 6 h/peak area at t0). The mass-to-charge ratios selected for SIR mode were based on values obtained from full spectrum analysis of each peptide and are presented in Table 1.

Compound	MBIC, S. aureus ATCC 25923 [1]	MBEC, S. aureus ATCC 25923 [2]	MIC, S. aureus ATCC 25923 (S. aureus ATCC 25923)	MBIC, E. faecalis PCM 2673 [3]	MBEC, E. faecalis PCM 2673 [4]	MIC, E. faecalis PCM 2673 (E. faecalis PCM 2673)	MBIC, E. coli ATCC 25922 [5]	MBEC, E. coli ATCC 25922 [6]	MIC, E. coli ATCC 25922 (E. coli ATCC 25922)	MBIC, P. aeruginosa ATCC 9027 [7]	MBEC, P. aeruginosa ATCC 9027 [8]	MIC, P. aeruginosa ATCC 9027 (P. aeruginosa ATCC 9027)	MBIC, C. albicans ATCC 10231 [9]	MBEC, C. albicans ATCC 10231 [10]	MIC, C. albicans ATCC 10231 (C. albicans ATCC 10231)	Percentage of hemolysis at 1 μg/mL ([11]; red cells of human, 1 h)	Percentage of hemolysis at 2 μg/mL ([11]; red cells of human, 1 h)	Percentage of hemolysis at 4 μg/mL ([11]; red cells of human, 1 h)	Percentage of hemolysis at 8 μg/mL ([11]; red cells of human, 1 h)	Percentage of hemolysis at 32 μg/mL ([11]; red cells of human, 1 h)	further results
CC[C@H](C)[C@H](NC(=O)[C@H](CCCCN)NC(=O)[C@H](CCCCN)NC(=O)[C@@H](NC(=O)[C@@H](NC(=O)[C@H](CC(=O)O)NC(=O)[C@H](C)NC(=O)[C@H](CC(C)C)NC(=O)CN)[C@@H](C)CC)[C@@H](C)CC)C(=O)N[C@@H](C)C(=O)N[C@@H](CCC(=O)O)C(=O)N[C@@H](CO)C(=O)N[C@@H](Cc1ccccc1)C(N)=O [Peptide F3A] (H-GLADIIKKIAESF-NH2)	>512 µg/mL	> 512 µg/mL	512 µg/mL (≈ 365 µM)	256 µg/mL	> 512 µg/mL	256 µg/mL (≈ 182 µM)	256 µg/mL	256 µg/mL	128 µg/mL (≈ 91.2 µM)	512 µg/mL	> 512 µg/mL	512 µg/mL (≈ 365 µM)	4 µg/mL	> 512 µg/mL	128 µg/mL (≈ 91.2 µM)	0.1%	0.1%	0.0%	0.0%	0.0%	Percentage of hemolysis at 16 μg/mL ([11]; red cells of human, 1 h, 16): 0.0%; Percentage of hemolysis at 64 μg/mL ([11]; red cells of human, 1 h): 0.0%; Percentage of hemolysis at 128 μg/mL ([11]; red cells of human, 1 h): 0.0%; Percentage of hemolysis at 256 μg/mL ([11]; red cells of human, 1 h): 0.3%; remaining at 6 h, 0.125 mg/mL (in vitro): 38%
CC[C@H](C)[C@H](NC(=O)[C@H](CCCCN)NC(=O)[C@H](CCCCN)NC(=O)[C@@H](NC(=O)[C@@H](NC(=O)[C@H](CC(=O)O)NC(=O)[C@H](Cc1ccccc1)NC(=O)[C@H](CC(C)C)NC(=O)CN)[C@@H](C)CC)[C@@H](C)CC)C(=O)N[C@@H](C)C(=O)N[C@@H](CCC(=O)O)C(=O)N[C@@H](CO)C(=O)N[C@@H](C)C(N)=O [Peptide F13A] (H-GLFDIIKKIAESA-NH2)	>512 µg/mL	128 µg/mL	> 512 µg/mL	>512 µg/mL	> 512 µg/mL	128 µg/mL (≈ 91.2 µM)	>512 µg/mL	512 µg/mL	128 µg/mL (≈ 91.2 µM)	>512 µg/mL	> 512 µg/mL	> 512 µg/mL	8 µg/mL	> 512 µg/mL	512 µg/mL (≈ 365 µM)	0.3%	0.6%	0.5%	0.4%	0.0%	Percentage of hemolysis at 16 μg/mL [11]: 0,0%; Hemolysis over the whole concentration range ([11]; 1–256 μg/mL, 4% human RBCs in PBS, 1 h, 37 °C): did not cause the lysis of RBCs; Percentage of hemolysis at 64 μg/mL ([11]; red cells of human, 1 h): 0.0%; Percentage of hemolysis at 128 μg/mL ([11]; red cells of human, 1 h): 0.0%; Percentage of hemolysis at 256 μg/mL ([11]; red cells of human, 1 h): 0.0%; remaining at 6 h, 0.125 mg/mL (in vitro): 54%
